The record followed here is ChEMBL document CHEMBL5325504, “Bioactive Indole Alkaloid from Aspergillus amoenus TJ507 That Ameliorates Hepatic Ischemia/Reperfusion Injury” (J Nat Prod, 2023).

SMILES strings stand for the structures. Active and inactive are the calls of the source. The calls are words filed in the database; no cut-off is given here.

Series [1] concerns AML12. The experiment in a line: Cytoprotective activity against CoCl2-induced mouse AML12 cells assessed as increase in cell survival rate by CCK8 method. Format: functional, cell-based. A general note: Tetrazolium assays rely on reduction of a dye to a coloured formazan, in cell work by metabolically active cells.
The species entered for series [2] is Mus musculus. As to the kind of experiment: Hepatoprotective activity against ischemia-reperfusion injury mouse model assessed as reduction in MPO expression level by IHC staining based analysis. It is filed as functional, organism-based.
The species entered for series [3] is Mus musculus. As to the kind of experiment: Hepatoprotective activity against ischemia-reperfusion injury mouse model assessed as reduction in translocation of HMGB1 from nucleus to cytoplasm by IHC staining based analysis. It is filed as functional, organism-based.
Series [4] has as its system Mus musculus. The experiment in a line: Hepatoprotective activity against ischemia-reperfusion injury mouse model assessed as reduction in LDH level in serum at 10 mg/kg, ip administered once daily for 3 days. It is filed as functional, organism-based. The following applies: time 3.0 day.
Series [5] deals with AML12. As to the kind of experiment: Cytotoxicity against mouse AML12 cells assessed as reduction in cell survival rate at by CCK8 assay. It is filed as toxicity, cell-based.
The species entered for series [6] is Mus musculus. As to the kind of experiment: Hepatoprotective activity against ischemia-reperfusion injury mouse model assessed as reduction in liver ecchymosis by H and E staining based analysis. It is filed as functional, organism-based.
The species named for series [7] is Mus musculus. The experiment in a line: Hepatoprotective activity against ischemia-reperfusion injury mouse model assessed as reduction in leukocyte infiltration by H and E staining based analysis. Format: functional, organism-based.
The species named for series [8] is Mus musculus. The experiment in a line: Hepatoprotective activity against ischemia-reperfusion injury mouse model assessed as reduction in TUNEL positive cells by TUNEL staining based analysis. It is filed as functional, organism-based.
The species named for series [9] is Mus musculus. The experiment in a line: Hepatoprotective activity against ischemia-reperfusion injury mouse model assessed as reduction in necrocytosis by H and E staining based analysis. It is filed as functional, organism-based.
The species named for series [10] is Mus musculus. The experiment in a line: Hepatoprotective activity against ischemia-reperfusion injury mouse model assessed as reduction in cleaved caspase-3 by IHC staining based analysis. Format: functional, organism-based.
Series [11] concerns AML12. The experiment in a line: Cytoprotective activity against CoCl2-induced mouse AML12 cells assessed as increased cell survival rate at 1.25 to 10 uM by CCK8 assay. Format: functional, cell-based. The following applies: dose 1.25-10 µM.
Series [12] relates to Mus musculus. The experiment in a line: Hepatoprotective activity against ischemia-reperfusion injury mouse model assessed as reduction in ALT level in serum at 10 mg/kg, ip administered once daily for 3 days. It is filed as functional, organism-based. The following applies: time 3.0 day.
Series [13] deals with Mus musculus. The experiment in a line: Hepatoprotective activity against ischemia-reperfusion injury mouse model assessed as reduction in AST level in serum at 10 mg/kg, ip administered once daily for 3 days. Format: functional, organism-based. The following applies: time 3.0 day.

For the compound `C/C=C1\NC(=O)[C@H](Cc2c[nH]c3ccccc23)N(C)C1=O`, the outcome in the series on AML12 [1] was inactive.
In the case of `C=CC(C)(C)C(=O)Nc1c(C(=O)C[C@@H]2NC(=O)[C@@H]3CCCN3C2=O)ccc(O)c1CC=C(C)C`, the outcome in the series on AML12 [1] was inactive.
On the same count and under the same terms, next, `C=CC(C)(C)[C@@]1(C[C@@H]2NC(=O)[C@]3(OC)CCCN3C2=O)C(=O)Nc2c1ccc1c2C=CC(C)(C)O1`: “inactive”; `C=CC(C)(C)[C@]1(C[C@@H]2NC(=O)[C@@H]3CCCN3C2=O)C(=O)Nc2c1ccc(O)c2CC=C(C)C`: “inactive”; `CC1(C)C=Cc2c(ccc3c2N(O)C(=O)[C@@]32C[C@@]34NC(=O)[C@]5(CCCN5C3=O)C[C@H]4C2(C)C)O1`: “inactive”.
On the same count and under the same terms, to `CC1(C)C=Cc2c(ccc3c2NC(=O)[C@@]32C[C@@]34NC(=O)[C@]5(CCCN5C3=O)C[C@H]4C2(C)C)O1` belongs “inactive”.
As for `C=CC(C)(C)[C@]1(C[C@@H]2NC(=O)[C@]3(OC)CCCN3C2=O)C(=O)Nc2c1ccc1c2C=CC(C)(C)O1` [NOTOAMIDE Q], the outcome in the series filed under Mus musculus [2], in the series listed under Mus musculus [3], in the series on Mus musculus [4], in the series listed under Mus musculus [6], in the series filed under Mus musculus [7] and in the series filed under Mus musculus [8] was Active. Moreover, the outcome in the series listed under Mus musculus [9], in the series filed under Mus musculus [10], in the series with AML12 [1], with AML12 [11], in the series on Mus musculus [12] and in the series on Mus musculus [13] was Active. Moreover, the Activity entry in the series with AML12 [5] was “Non-Toxic”.
